Key:
A549 = assay: Compound was tested for its inhibitory effect on the growth of A-549 tumor cell line from lung.; assay type: functional, cell-based; conditions: Homo sapiens
AZ-521 cell line [1] = assay: Compound was tested for its inhibitory effect on the growth of AZ-521 tumor cell line from stomach.; assay type: functional, cell-based; conditions: Homo sapiens
AZ-521 cell line [2] = assay: Compound was tested for its percentage inhibitory effect on the growth of AZ-521 tumor cell line from stomach at an iv dose of 2 mg/kg x10.; assay type: functional, Homo sapiens
BXPC-3 [3] = assay: Compound was tested for its percentage inhibitory effect on the growth of BxPC-3 tumor cell line from […] at an iv dose of 2 mg/kg x10.; assay type: functional, Homo sapiens
Co-3 [4] = assay: Compound was tested for its percentage inhibitory effect on the growth of CO-3 tumor cell line from colon at an iv dose of 2 mg/kg x10.; assay type: functional, Homo sapiens
DLD-1 [5] = assay: Compound was tested for its percentage inhibitory effect on the growth of DLD-1 tumor cell line from colon at an iv dose of 2 mg/kg x10.; assay type: functional, Homo sapiens
COLO 320DM = assay: Compound was tested for its inhibitory effect on the growth of COLO 320DM tumor cell line from colon.; assay type: functional, cell-based; conditions: Homo sapiens
DLD-1 [6] = assay: Compound was tested for its inhibitory effect on the growth of DLD-1 tumor cell line from colon.; assay type: functional, cell-based; conditions: Homo sapiens
H-81 [7] = assay: Compound was tested for its percentage inhibitory effect on the growth of H-81 tumor cell line from stomach at an iv dose of 2 mg/kg x10.; assay type: functional, Homo sapiens
HCT-15 = assay: Compound was tested for its inhibitory effect on the growth of HCT-15 tumor cell line from colon.; assay type: functional, cell-based; conditions: Homo sapiens
HT-1080 = assay: Compound was tested for its inhibitory effect on the growth of HT1080 sarcoma tumor cell line.; assay type: functional, cell-based; conditions: Homo sapiens
KKLS = assay: Compound was tested for its inhibitory effect on the growth of KKLS tumor cell line from stomach.; assay type: functional, cell-based; conditions: Homo sapiens
KM12 [8] = assay: Compound was tested for its percentage inhibitory effect on the growth of KM12C tumor cell line from colon at an iv dose of 2 mg/kg x10.; assay type: functional, Homo sapiens
MKN-45 = assay: Compound was tested for its inhibitory effect on the growth of MKN-45 tumor cell line from stomach.; assay type: functional, cell-based; conditions: Homo sapiens
MKN-28 = assay: Compound was tested for its inhibitory effect on the growth of MKN-28 tumor cell line from stomach.; assay type: functional, cell-based; conditions: Homo sapiens
NUGC-3 = assay: Compound was tested for its inhibitory effect on the growth of NUGC-3 tumor cell line from stomach.; assay type: functional, cell-based; conditions: Homo sapiens
PAM12 [9] = assay: Compound was tested for its percentage inhibitory effect on the growth of PAN-12 tumor cell line from […] at an iv dose of 2 mg/kg x10.; assay type: functional, Homo sapiens
PANC-1 = assay: Compound was tested for its inhibitory effect on the growth of PANC-1 tumor cell line from pancreas.; assay type: functional, cell-based; conditions: Homo sapiens
SW48 = assay: Compound was tested for its inhibitory effect on the growth of SW-48 tumor cell line from colon.; assay type: functional, cell-based; conditions: Homo sapiens
SNU-C2A = assay: Compound was tested for its inhibitory effect on the growth of […] tumor cell line from colon.; assay type: functional, cell-based; conditions: Homo sapiens
T-24 = assay: Compound was tested for its inhibitory effect on the growth of T24 tumor cell line from bladder.; assay type: functional, cell-based; conditions: Homo sapiens
AZ-521 cell line [10] = assay: Compound was tested for its percentage inhibitory effect on the growth of AZ-521 tumor cell line from stomach at an iv dose of 2 mh/kg x10.; assay type: functional, Homo sapiens
BXPC-3 [11] = assay: Compound was tested for its percentage inhibitory effect on the growth of BxPC-3 tumor cell line from […] at an iv dose of 15 mg/kg x14.; assay type: functional, Homo sapiens
Co-3 [12] = assay: Compound was tested for its percentage inhibitory effect on the growth of CO-3 tumor cell line from colon at an iv dose of 15 mg/kg x14.; assay type: functional, Homo sapiens
DLD-1 [13] = assay: Compound was tested for its percentage inhibitory effect on the growth of DLD-1 tumor cell line from colon at an iv dose of 15 mg/kg x14.; assay type: functional, Homo sapiens
H-81 [14] = assay: Compound was tested for its percentage inhibitory effect on the growth of H-81 tumor cell line from stomach at an iv dose of 15 mg/kg x14.; assay type: functional, Homo sapiens
KM12 [15] = assay: Compound was tested for its percentage inhibitory effect on the growth of KM12C tumor cell line from colon at an iv dose of 15 mg/kg x14.; assay type: functional, Homo sapiens
PAM12 [16] = assay: Compound was tested for its percentage inhibitory effect on the growth of PAN-12 tumor cell line from […] at an iv dose of 15 mg/kg x14.; assay type: functional, Homo sapiens

SMILES	IC50 (A549)	IC50 (AZ-521 cell line [1])	IC50 (COLO 320DM)	IC50 (DLD-1 [6])	IC50 (HCT-15)	IC50 (HT-1080)	IC50 (KKLS)	IC50 (MKN-45)	IC50 (MKN-28)	IC50 (NUGC-3)	IC50 (PANC-1)	IC50 (SW48)	IC50 (SNU-C2A)	IC50 (T-24)	also measured
C#C[C@]1(O)[C@@H](CO)O[C@@H](n2ccc(=O)[nH]c2=O)[C@@H]1O	29 nM	36 nM	60 nM	66 nM	43 nM	24 nM	190 nM	24 nM	80 nM	34 nM	11000 nM	120 nM	18 nM	34 nM	Ratio (AZ-521 cell line [2]): 81; Tumor inhibition ratio (BXPC-3 [3]): 35%; Tumor inhibition ratio (Co-3 [4]): 90%; Tumor inhibition ratio (DLD-1 [5]): 73%; Tumor inhibition ratio (H-81 [7]): 92%; Tumor inhibition ratio (KM12 [8]): 81%; Tumor inhibition ratio (PAM12 [9]): 81%
O=c1[nH]cc(F)c(=O)[nH]1 [FLUOROURACIL]	1700 nM	3900 nM	1100 nM	6000 nM	5700 nM		6200 nM	3000 nM	2500 nM	4400 nM	> 78000 nM	5700 nM	2700 nM	22000 nM	Tumor inhibition ratio (AZ-521 cell line [10]): 25%; Tumor inhibition ratio (BXPC-3 [11]): 50%; Tumor inhibition ratio (Co-3 [12]): 49%; Tumor inhibition ratio (DLD-1 [13]): 50%; Tumor inhibition ratio (H-81 [14]): 83%; Tumor inhibition ratio (KM12 [15]): 59%; Tumor inhibition ratio (PAM12 [16]): 40%
O=c1[nH]c(=O)n([C@H]2C[C@H](O)[C@@H](CO)O2)cc1F [FLOXURIDINE]	1000 nM	50 nM	650 nM	92 nM	49 nM	120 nM	760 nM	3500 nM	120 nM	15 nM	> 40000 nM	130 nM	3.3 nM	120 nM	
O=c1[nH]c(=O)n([C@@H]2O[C@H](CO)[C@@H](O)[C@H]2O)cc1F [5-FLUOROURIDINE]	1900 nM	50 nM	5.4 nM	73 nM	47 nM	41 nM	16 nM	26 nM	28 nM	22 nM	11000 nM	16 nM	45 nM	14 nM	

Reference: ChEMBL document CHEMBL1129138, “Nucleosides and nucleotides. 152. 1-(3-C-Ethynyl--D-ribo-pentofuranosyl)uracil as a broad spectrum antitumor nucleoside” (Bioorg Med Chem Lett, 1996)
